In patent publication US20240148821A1, “PHARMACEUTICAL USE OF CYCLIC PEPTIDE COMPOUND” (CHUGAI SEIYAKU KABUSHIKI KAISHA, priority 2021, published 2024):
Numbered stars: 1 amine (or outer) side, 2 acyl side, 3 side chain; on linkers, the order of the positions; unused ones are H or OH. Bridge positions count the residues as written; N and C are the ends. Square brackets hold non-standard residues; d marks the D form. Peptide text beside a SMILES is read from it. * marks the point of attachment. hPhe(3-Cl-4-CF3) = N[C@@H](CCc1ccc(C(F)(F)F)c(Cl)c1)C(=O)O; NMePhe(4-CF3) = CN[C@@H](Cc1ccc(C(F)(F)F)cc1)C(=O)O; hPhe(4-CF3) = N[C@@H](CCc1ccc(C(F)(F)F)cc1)C(=O)O; NMePhe(4-Cl) = CN[C@@H](Cc1ccc(Cl)cc1)C(=O)O; NMePhe(4-Me) = CN[C@@H](Cc1ccc(C)cc1)C(=O)O; hPhe(4-Cl) = N[C@@H](CCc1ccc(Cl)cc1)C(=O)O; NMedβ3hAla = C[C@H](CC(=O)[*:2])N(C)[*:1]; NMeNva(5,5-F2) = CN[C@@H](CCC(F)F)C(=O)O; NMeGly(cPent) = CN[C@H](C(=O)O)C1CCCC1; Pro(4,4-F2) = O=C(O)[C@@H]1CC(F)(F)CN1; dβ3hPip = O=C(C[C@H]1CCCCN1[*:1])[*:2]; NMeCha = CN[C@@H](CC1CCCCC1)C(=O)O; Hyp = O=C(O)[C@@H]1C[C@@H](O)CN1; NEtLeu = CCN[C@@H](CC(C)C)C(=O)O; NMeChg = CN[C@H](C(=O)O)C1CCCCC1; NMeF = CN[C@@H](Cc1ccccc1)C(=O)O; NMeD = CN[C@@H](CC(=O)O)C(=O)O; NMeL = CN[C@@H](CC(C)C)C(=O)O; NMePra = C#CC[C@H](NC)C(=O)O; NMeV = CN[C@H](C(=O)O)C(C)C; d(β3hA) = C[C@@H](N)CC(=O)O; NMeA = CN[C@@H](C)C(=O)O; Piperidide = C1CCN(*)CC1; Ac5c = NC1(C(=O)O)CCCC1; Aze = O=C(O)[C@@H]1CCN1; Ac4c = NC1(C(=O)O)CCC1; Sar = CNCC(=O)O

Biological target: protein-protein interaction between Kras and SOS1 (biotin-tagged human Kras loaded with GDP, His-tagged human SOS1) (Homo sapiens (Human), UniProt P01116, G12D)
Assay: Protein-protein interaction inhibition between Kras and SOS1 (KrasG12D-SOS PPI) using AlphaScreen;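 also: kras produced in E. coli, Ni-coupled donor beads and streptavidin acceptor beads, excitation 680 nm with emission detected at 520–620 nm via singlet oxygen transfer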
Assay type: biochemical
Settings: AlphaScreen; biotin-tagged human Kras loaded with GDP, His-tagged human SOS1; read-out: KRAS G12D-SOS PPI IC50

Compound | IC50
CC[C@H](C)[C@@H]1NC(=O)[C@H](CC(C)C)N(C)C(=O)C[C@@H](C)N(C)C(=O)[C@H](C2CCCCC2)N(C)C(=O)C2(CCC2)NC(=O)[C@@H]2CC(F)(F)CN2C(=O)[C@H](CCc2ccc(C(F)(F)F)c(Cl)c2)NC(=O)CN(C)C(=O)[C@H](Cc2ccc(C(F)(F)F)cc2)N(C)C(=O)[C@@H]2CCN2C(=O)[C@H](C)N(C)C1=O [Compound 505] (cyclo([Ac4c][NMeChg][NMedβ3hAla][NMeL]I[NMeA][Aze][NMePhe(4-CF3)][Sar][hPhe(3-Cl-4-CF3)][Pro(4,4-F2)])) | 86 nM
CCO[C@@H]1C[C@H]2C(=O)NC3(CCCC3)C(=O)N(C)[C@@H](C3CCCC3)C(=O)N(C)[C@H](C)CC(=O)N(C)[C@@H](CC(C)C)C(=O)N[C@@H]([C@@H](C)CC)C(=O)N(C)CC(=O)N(C)CC(=O)N(C)[C@@H](CC3CCCCC3)C(=O)N(C)CC(=O)N[C@@H](CCc3ccc(C(F)(F)F)c(Cl)c3)C(=O)N2C1 [Compound 510] (cyclo([Ac5c][NMeGly(cPent)][NMedβ3hAla][NMeL]I[Sar][Sar][NMeCha][Sar][hPhe(3-Cl-4-CF3)][Hyp](Et))) | 4 nM
CC[C@H](C)[C@@H]1NC(=O)[C@H](C)N(C)C(=O)C[C@H]2CCCCN2C(=O)[C@H](C(C)C)N(C)C(=O)[C@H](Cc2ccccc2)N(C)C(=O)[C@H](CC(C)C)N(C)C(=O)[C@H](CCc2ccc(C(F)(F)F)cc2)NC(=O)CN(C)C(=O)[C@H](Cc2ccc(Cl)cc2)N(C)C(=O)CN(C)C(=O)CN(C)C1=O [Compound 512] (cyclo(I[Sar][Sar][NMePhe(4-Cl)][Sar][hPhe(4-CF3)][NMeL][NMeF][NMeV][dβ3hPip][NMeA])) | 150 nM
CC[C@H](C)[C@@H]1NC(=O)[C@H](CC(C)C)N(C)C(=O)C[C@@H](C(=O)N2CCCCC2)N(C)C(=O)[C@H](C2CCCCC2)N(C)C(=O)C2(CCCC2)NC(=O)[C@H](CCC(F)F)N(C)C(=O)[C@H](CCc2ccc(C(F)(F)F)c(Cl)c2)NC(=O)CN(C)C(=O)[C@H](CC2CCCCC2)N(C)C(=O)CN(C)C(=O)CN(C)C1=O [Compound 523] ([NMeL]I[Sar][Sar][NMeCha][Sar][hPhe(3-Cl-4-CF3)][NMeNva(5,5-F2)][Ac5c][NMeChg][NMeD]-Piperidide; lactam N-11) | 5.8 nM
CC[C@H](C)[C@@H]1NC(=O)[C@H](CC(C)C)N(C)C(=O)C[C@@H](C(=O)N2CCCCC2)N(C)C(=O)[C@H](C(C)C)N(C)C(=O)C2(CCCC2)NC(=O)[C@@H]2CCCN2C(=O)[C@H](CCc2ccc(Cl)cc2)NC(=O)CN(C)C(=O)[C@H](CC2CCCCC2)N(C)C(=O)CN(C)C(=O)[C@@H]2CCCN2C1=O [Compound 530] ([NMeL]IP[Sar][NMeCha][Sar][hPhe(4-Cl)]P[Ac5c][NMeV][NMeD]-Piperidide; lactam N-11) | 140 nM
CC[C@H](C)[C@@H]1NC(=O)[C@H](CC(C)C)N(CC)C(=O)C[C@@H](C)NC(=O)[C@H](C2CCCC2)N(C)C(=O)C2(CCCC2)NC(=O)[C@@H]2CCCN2C(=O)[C@H](CCc2ccc(C(F)(F)F)c(Cl)c2)NC(=O)CN(C)C(=O)[C@H](Cc2ccc(C)cc2)N(C)C(=O)[C@@H]2CCN2C(=O)[C@H](C)N(C)C1=O [Compound 531] (cyclo([Ac5c][NMeGly(cPent)][d(β3hA)][NEtLeu]I[NMeA][Aze][NMePhe(4-Me)][Sar][hPhe(3-Cl-4-CF3)]P)) | 1.6 nM
CCO[C@@H]1C[C@H]2C(=O)NC3(CCCC3)C(=O)N(C)[C@@H](C3CCCC3)C(=O)N(C)[C@H](C)CC(=O)N(C)[C@@H](CC(C)C)C(=O)N[C@@H]([C@@H](C)CC)C(=O)N(C)CC(=O)N(C)CC(=O)N(C)[C@@H](Cc3ccc(C(F)(F)F)cc3)C(=O)N(C)CC(=O)N[C@@H](CCc3ccc(C(F)(F)F)c(Cl)c3)C(=O)N2C1 [Compound 541] (cyclo([Ac5c][NMeGly(cPent)][NMedβ3hAla][NMeL]I[Sar][Sar][NMePhe(4-CF3)][Sar][hPhe(3-Cl-4-CF3)][Hyp](Et))) | 4.3 nM
CC[C@H](C)[C@@H]1NC(=O)[C@H](C)N(C)C(=O)C[C@@H](C)NC(=O)[C@H](CC(C)C)N(C)C(=O)[C@H](Cc2ccccc2)N(C)C(=O)[C@H](CC(C)C)N(C)C(=O)[C@H](CCc2ccc(C(F)(F)F)cc2)NC(=O)CN(C)C(=O)[C@H](Cc2ccc(Cl)cc2)N(C)C(=O)CN(C)C(=O)CN(C)C1=O [Compound 546] (cyclo(I[Sar][Sar][NMePhe(4-Cl)][Sar][hPhe(4-CF3)][NMeL][NMeF][NMeL][d(β3hA)][NMeA])) | 130 nM
C#CC[C@H]1C(=O)N[C@@H]([C@@H](C)CC)C(=O)N(C)[C@@H](C)C(=O)N2CC[C@H]2C(=O)N(C)[C@@H](CC2CCCCC2)C(=O)N(C)CC(=O)N[C@@H](CCc2ccc(C(F)(F)F)c(Cl)c2)C(=O)N2CCC[C@H]2C(=O)NC2(CCCC2)C(=O)N(C)[C@@H](C(C)C)C(=O)N(C)[C@H](C(=O)N2CCCCC2)CC(=O)N1C [Compound 559] ([NMePra]I[NMeA][Aze][NMeCha][Sar][hPhe(3-Cl-4-CF3)]P[Ac5c][NMeV][NMeD]-Piperidide; lactam N-11) | 1.7 nM
